Holding throughout (assay): TGFα-shedding assay-based GPCR screening with chimeric Gα subunit proteins
Common to all, as to type: cell-based

The target of test [1] is T1, 348 GPCRs (Homo sapiens, UniProt P04000).
T1 construct: expressed in transfected cells; host or cells: HEK293A
T1 sequence (P04000 1-364): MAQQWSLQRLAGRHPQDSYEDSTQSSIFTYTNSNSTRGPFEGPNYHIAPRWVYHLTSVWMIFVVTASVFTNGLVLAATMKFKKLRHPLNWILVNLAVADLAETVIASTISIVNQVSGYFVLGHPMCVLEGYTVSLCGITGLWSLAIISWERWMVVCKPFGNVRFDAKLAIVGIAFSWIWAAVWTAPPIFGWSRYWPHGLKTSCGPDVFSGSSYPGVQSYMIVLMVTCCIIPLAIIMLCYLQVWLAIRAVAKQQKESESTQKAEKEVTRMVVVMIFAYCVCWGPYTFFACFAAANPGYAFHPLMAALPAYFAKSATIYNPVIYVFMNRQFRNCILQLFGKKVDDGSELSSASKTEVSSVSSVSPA
The note with it: 10µM, Favipiravir 100μM.

In test [2] the target is T2, 348 GPCRs (Homo sapiens, UniProt P08588).
T2 construct: expressed in transfected cells; host or cells: HEK293A
T2 sequence (P08588 whole entry): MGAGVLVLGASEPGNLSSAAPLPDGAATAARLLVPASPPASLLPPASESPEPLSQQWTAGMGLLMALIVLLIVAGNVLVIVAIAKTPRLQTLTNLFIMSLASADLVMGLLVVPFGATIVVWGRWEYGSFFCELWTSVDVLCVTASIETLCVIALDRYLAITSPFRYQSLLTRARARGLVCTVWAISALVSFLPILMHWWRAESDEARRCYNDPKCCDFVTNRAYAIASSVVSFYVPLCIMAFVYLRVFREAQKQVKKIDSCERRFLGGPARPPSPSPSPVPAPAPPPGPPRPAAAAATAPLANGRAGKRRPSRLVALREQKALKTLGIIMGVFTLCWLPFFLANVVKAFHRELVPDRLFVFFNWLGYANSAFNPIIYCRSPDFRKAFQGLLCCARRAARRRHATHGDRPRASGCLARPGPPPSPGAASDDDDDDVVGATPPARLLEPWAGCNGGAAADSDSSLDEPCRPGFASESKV

Test [3] concerns the target T3, 348 GPCRs (Homo sapiens, UniProt P08908).
T3 construct: expressed in transfected cells; host or cells: HEK293A
T3 sequence (P08908 1-422): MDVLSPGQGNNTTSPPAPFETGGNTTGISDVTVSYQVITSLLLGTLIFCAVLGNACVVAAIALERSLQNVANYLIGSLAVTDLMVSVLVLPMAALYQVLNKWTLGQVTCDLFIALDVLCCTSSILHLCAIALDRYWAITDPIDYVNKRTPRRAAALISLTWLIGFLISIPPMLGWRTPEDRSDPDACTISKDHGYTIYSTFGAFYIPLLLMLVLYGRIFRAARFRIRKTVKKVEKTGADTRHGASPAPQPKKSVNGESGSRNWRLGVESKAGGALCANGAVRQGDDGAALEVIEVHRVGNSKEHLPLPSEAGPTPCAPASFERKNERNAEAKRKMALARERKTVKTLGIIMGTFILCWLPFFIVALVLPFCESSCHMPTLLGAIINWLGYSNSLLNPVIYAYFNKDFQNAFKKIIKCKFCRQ
The note with it: 10µM, Favipiravir 100μM.

Test [4] has as its target T4, 348 GPCRs (Homo sapiens, UniProt P21452).
T4 construct: expressed in transfected cells; host or cells: HEK293A
T4 sequence (P21452 1-398): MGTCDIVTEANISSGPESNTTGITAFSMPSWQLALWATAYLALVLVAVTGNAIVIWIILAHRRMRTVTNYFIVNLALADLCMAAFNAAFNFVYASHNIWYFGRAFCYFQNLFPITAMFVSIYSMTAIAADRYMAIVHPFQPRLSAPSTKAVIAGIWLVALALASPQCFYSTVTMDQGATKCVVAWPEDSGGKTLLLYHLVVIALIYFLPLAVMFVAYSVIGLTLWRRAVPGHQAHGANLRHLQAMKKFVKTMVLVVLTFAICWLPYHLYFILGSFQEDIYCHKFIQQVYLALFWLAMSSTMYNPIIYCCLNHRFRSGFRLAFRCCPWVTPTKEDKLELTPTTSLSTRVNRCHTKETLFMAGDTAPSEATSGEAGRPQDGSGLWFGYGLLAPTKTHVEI
The following applies: 10µM, Favipiravir 100μM.

For test [5], the target named is 348 GPCRs (Homo sapiens, UniProt P30989). The following applies: 10µM, Favipiravir 100μM.
Chain of 348 GPCRs (Homo sapiens, UniProt P30989) (P30989 whole entry): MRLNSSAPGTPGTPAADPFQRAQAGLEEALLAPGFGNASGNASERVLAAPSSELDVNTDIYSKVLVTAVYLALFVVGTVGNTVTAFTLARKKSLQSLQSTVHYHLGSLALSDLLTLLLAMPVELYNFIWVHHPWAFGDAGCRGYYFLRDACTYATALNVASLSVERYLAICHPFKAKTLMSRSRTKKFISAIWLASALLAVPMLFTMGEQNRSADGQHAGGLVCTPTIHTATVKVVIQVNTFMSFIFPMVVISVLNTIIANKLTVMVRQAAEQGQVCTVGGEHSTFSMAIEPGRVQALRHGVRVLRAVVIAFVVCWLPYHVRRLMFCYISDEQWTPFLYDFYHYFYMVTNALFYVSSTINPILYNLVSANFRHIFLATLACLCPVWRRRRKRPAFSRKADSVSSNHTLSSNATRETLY
In test [6] the target is T5, 348 GPCRs (Homo sapiens, UniProt P32247).
T5 construct: expressed in transfected cells; host or cells: HEK293A
T5 sequence (P32247 1-399): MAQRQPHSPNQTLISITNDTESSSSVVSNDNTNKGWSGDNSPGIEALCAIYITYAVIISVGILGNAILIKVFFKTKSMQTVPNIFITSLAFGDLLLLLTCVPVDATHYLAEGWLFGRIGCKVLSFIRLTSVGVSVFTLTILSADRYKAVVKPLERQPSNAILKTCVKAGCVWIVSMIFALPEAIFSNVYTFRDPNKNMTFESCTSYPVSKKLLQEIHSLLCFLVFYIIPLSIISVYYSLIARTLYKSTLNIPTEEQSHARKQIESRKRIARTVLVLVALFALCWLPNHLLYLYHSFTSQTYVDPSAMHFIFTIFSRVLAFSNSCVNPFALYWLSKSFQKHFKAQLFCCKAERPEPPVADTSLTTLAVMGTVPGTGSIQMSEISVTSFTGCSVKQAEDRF
The note with it: 10µM, Favipiravir 100μM.

The target in test [7] is T6, 348 GPCRs (Homo sapiens, UniProt P34972).
T6 construct: expressed in transfected cells; host or cells: HEK293A
T6 sequence (P34972 whole entry): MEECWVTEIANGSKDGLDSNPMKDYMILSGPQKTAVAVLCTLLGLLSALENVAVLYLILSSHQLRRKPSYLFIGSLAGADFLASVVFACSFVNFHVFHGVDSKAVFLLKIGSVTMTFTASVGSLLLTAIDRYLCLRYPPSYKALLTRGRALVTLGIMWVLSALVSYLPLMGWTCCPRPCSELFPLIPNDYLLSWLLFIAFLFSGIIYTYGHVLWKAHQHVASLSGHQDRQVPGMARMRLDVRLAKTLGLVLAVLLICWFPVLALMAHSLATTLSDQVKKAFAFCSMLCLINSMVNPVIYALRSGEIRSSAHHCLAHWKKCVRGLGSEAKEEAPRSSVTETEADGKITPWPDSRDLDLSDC
The note with it: 10µM, Favipiravir 100μM.

Test [8] has as its target T7, 348 GPCRs (Homo sapiens, UniProt P37288).
T7 construct: expressed in transfected cells; host or cells: HEK293A

For test [9], the target named is T8, 348 GPCRs (Homo sapiens, UniProt P43116).
T8 construct: expressed in transfected cells; host or cells: HEK293A
T8 sequence (P43116 whole entry): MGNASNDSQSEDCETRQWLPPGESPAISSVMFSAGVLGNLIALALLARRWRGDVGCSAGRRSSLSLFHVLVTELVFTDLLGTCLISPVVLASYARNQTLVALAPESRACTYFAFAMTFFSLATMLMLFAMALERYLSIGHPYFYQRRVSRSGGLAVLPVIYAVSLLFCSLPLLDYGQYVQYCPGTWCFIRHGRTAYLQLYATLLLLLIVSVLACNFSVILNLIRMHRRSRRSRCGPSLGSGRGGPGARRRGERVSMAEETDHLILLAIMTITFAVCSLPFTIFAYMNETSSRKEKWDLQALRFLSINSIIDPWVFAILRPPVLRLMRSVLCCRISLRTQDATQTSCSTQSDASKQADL
The following applies: 10µM, Favipiravir 100μM.

Test [10] has as its target T9, 348 GPCRs (Homo sapiens, UniProt Q15077).
T9 construct: expressed in transfected cells; host or cells: HEK293A

The target of test [11] is T10, 348 GPCRs (Homo sapiens, UniProt Q99527).
T10 construct: expressed in transfected cells; host or cells: HEK293A
T10 sequence (Q99527 whole entry): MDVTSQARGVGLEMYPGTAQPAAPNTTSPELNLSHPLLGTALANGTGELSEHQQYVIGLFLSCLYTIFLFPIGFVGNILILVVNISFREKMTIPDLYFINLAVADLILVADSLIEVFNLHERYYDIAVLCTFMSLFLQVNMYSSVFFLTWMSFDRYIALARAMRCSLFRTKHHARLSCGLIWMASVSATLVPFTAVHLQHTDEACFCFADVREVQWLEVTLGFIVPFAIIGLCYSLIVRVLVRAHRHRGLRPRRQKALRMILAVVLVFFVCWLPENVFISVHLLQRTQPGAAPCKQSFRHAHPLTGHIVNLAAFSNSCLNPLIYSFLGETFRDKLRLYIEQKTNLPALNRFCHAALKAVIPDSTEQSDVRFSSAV
The note with it: 10µM, Favipiravir 100μM.

Test [12] concerns the target T11, 348 GPCRs (Homo sapiens, UniProt Q9Y5X5).
T11 construct: expressed in transfected cells; host or cells: HEK293A
The note with it: 10µM, Favipiravir 100μM.

[13] abbreviates: OPN1LW (opsin 1 (cone pigments), long-wave-sensitive), read-out: % GPCR activation compared to TPA.
The mark [14] stands for this setting: 5-HT1A (5-hydroxytryptamine receptor 1A), read-out: % GPCR activation compared to TPA.
[15] abbreviates: NK2 (tachykinin receptor 2), read-out: % GPCR activation compared to TPA.
The mark [16] stands for this setting: NTSR1(CO) (neurotensin receptor 1), read-out: % GPCR activation compared to TPA.
The mark [17] stands for this setting: BB3 (Bombesin receptor, subtype 3), read-out: % GPCR activation compared to TPA.
Where [18] appears, read: CB2 (cannabinoid receptor 2), read-out: % GPCR activation compared to TPA.
[19] abbreviates: EP2 (prostaglandin E receptor 2), read-out: % GPCR activation compared to TPA.
Where [20] appears, read: GPER (G protein-coupled estrogen receptor 1), read-out: % GPCR activation compared to TPA.
Setting [21] is: NPFF2 (neuropeptide FF receptor 2), read-out: % GPCR activation compared to TPA.
Where [22] appears, read: read-out: % GPCR activation compared to TPA, OPN1LW (opsin 1 (cone pigments), long-wave-sensitive).
[23] abbreviates: read-out: % GPCR activation compared to TPA, GPCR β1 (adrenoceptor beta 1).
Setting [24] is: read-out: % GPCR activation compared to TPA, 5-HT1A (5-hydroxytryptamine receptor 1A).
[25] abbreviates: read-out: % GPCR activation compared to TPA, NK2 (tachykinin receptor 2).
Where [26] appears, read: read-out: % GPCR activation compared to TPA, NTSR1(CO) (neurotensin receptor 1).
The mark [27] stands for this setting: read-out: % GPCR activation compared to TPA, BB3 (Bombesin receptor, subtype 3).
Where [28] appears, read: read-out: % GPCR activation compared to TPA, CB2 (cannabinoid receptor 2).
Setting [29] is: read-out: % GPCR activation compared to TPA, GPCR V1A (arginine vasopressin receptor 1A).
[30] abbreviates: read-out: % GPCR activation compared to TPA, EP2 (prostaglandin E receptor 2).
The mark [31] stands for this setting: read-out: % GPCR activation compared to TPA, GPCR P2Y6 (pyrimidinergic receptor P2Y, G-protein coupled, 6).
Where [32] appears, read: read-out: % GPCR activation compared to TPA, GPER (G protein-coupled estrogen receptor 1).
Where [33] appears, read: read-out: % GPCR activation compared to TPA, NPFF2 (neuropeptide FF receptor 2).
[34] abbreviates: GPCR β1 (adrenoceptor beta 1), read-out: % GPCR activation compared to TPA.
Setting [35] is: GPCR V1A (arginine vasopressin receptor 1A), read-out: % GPCR activation compared to TPA.
[36] abbreviates: GPCR P2Y6 (pyrimidinergic receptor P2Y, G-protein coupled, 6), read-out: % GPCR activation compared to TPA.

SMILES strings stand for the structures. Where two headings read alike, the source gives them in different places.

Activation data for five molecules are collected here from publication PMC10175918 (Communications Biology, 2023).

T9 sequence (Q15077 whole entry): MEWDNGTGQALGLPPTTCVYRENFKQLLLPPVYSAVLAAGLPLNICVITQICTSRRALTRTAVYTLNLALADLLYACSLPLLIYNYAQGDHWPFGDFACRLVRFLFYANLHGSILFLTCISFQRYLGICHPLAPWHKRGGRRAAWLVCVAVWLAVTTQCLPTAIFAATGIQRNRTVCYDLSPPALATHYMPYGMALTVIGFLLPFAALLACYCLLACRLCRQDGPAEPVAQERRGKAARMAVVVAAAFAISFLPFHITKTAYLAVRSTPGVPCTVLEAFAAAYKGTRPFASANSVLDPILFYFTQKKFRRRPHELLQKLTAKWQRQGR
T11 sequence (Q9Y5X5 whole entry): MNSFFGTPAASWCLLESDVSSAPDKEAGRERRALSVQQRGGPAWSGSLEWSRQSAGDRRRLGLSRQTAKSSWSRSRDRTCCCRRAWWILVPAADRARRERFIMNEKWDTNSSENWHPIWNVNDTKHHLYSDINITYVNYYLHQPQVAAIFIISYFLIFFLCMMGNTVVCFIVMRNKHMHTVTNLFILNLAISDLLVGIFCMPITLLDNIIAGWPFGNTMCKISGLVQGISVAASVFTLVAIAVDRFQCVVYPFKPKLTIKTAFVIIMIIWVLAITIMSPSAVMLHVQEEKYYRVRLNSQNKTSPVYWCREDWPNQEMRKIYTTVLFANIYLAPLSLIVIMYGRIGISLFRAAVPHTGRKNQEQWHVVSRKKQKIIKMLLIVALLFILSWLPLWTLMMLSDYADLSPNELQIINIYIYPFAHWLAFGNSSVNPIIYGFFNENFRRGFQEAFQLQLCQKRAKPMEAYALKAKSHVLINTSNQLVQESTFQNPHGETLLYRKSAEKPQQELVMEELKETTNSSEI
T7 sequence (P37288 whole entry): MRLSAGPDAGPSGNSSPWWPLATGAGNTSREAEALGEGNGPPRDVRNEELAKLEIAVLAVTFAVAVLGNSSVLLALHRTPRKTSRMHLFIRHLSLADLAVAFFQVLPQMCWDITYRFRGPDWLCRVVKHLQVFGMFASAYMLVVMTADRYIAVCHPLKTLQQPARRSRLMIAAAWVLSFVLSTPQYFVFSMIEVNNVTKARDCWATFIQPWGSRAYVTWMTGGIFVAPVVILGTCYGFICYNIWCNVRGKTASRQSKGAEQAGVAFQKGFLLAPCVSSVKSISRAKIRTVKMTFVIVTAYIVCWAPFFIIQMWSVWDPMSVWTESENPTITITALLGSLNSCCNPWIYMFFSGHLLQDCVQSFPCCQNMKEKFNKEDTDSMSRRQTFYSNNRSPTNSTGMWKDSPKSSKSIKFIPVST

Take `NC(=O)c1nc(F)cnc1O` [favipiravir, 6-fluoro-3-hydroxy-2-pyrazinecarboxamide]: the activation at 100 µM at 348 GPCRs [1] (setting [13]) is 0.263%; at 348 GPCRs [2] (GPCR β1 (adrenoceptor beta 1), 100μM, read-out: % GPCR activation compared to TPA) it was -1.4%; on 348 GPCRs [5] (setting [16]), -1.75%; at 348 GPCRs [7] (setting [18]), 1.24%; at 348 GPCRs [8] (GPCR V1A (arginine vasopressin receptor 1A), 100μM, read-out: % GPCR activation compared to TPA) it was 0.923%; at 348 GPCRs [10] (GPCR P2Y6 (pyrimidinergic receptor P2Y, G-protein coupled, 6), 100μM, read-out: % GPCR activation compared to TPA), -0.384%. Further, the activation at 10 µM on 348 GPCRs [3] (setting [14]) is -0.504%; on 348 GPCRs [4] (setting [15]) it was 1.15%; at 348 GPCRs [6] (setting [17]) it was -0.00483%; on 348 GPCRs [9] (setting [19]), 0.965%; at 348 GPCRs [11] (setting [20]) it was -2.76%; at 348 GPCRs [12] (setting [21]), -0.818%.
For `CC(C)OC(=O)[C@H](C)N[P@](=O)(OC[C@H]1O[C@@H](n2ccc(=O)[nH]c2=O)[C@](C)(F)[C@@H]1O)Oc1ccccc1` [sofosbuvir], the activation at 100 µM at 348 GPCRs [1] (setting [22]) is -0.65%; at 348 GPCRs [5] (setting [26]), -8.04%; at 348 GPCRs [7] (setting [28]), -2.78%. The activation at 10 µM on 348 GPCRs [2] (setting [23]) is 1.27%; on 348 GPCRs [3] (setting [24]), -0.274%; at 348 GPCRs [4] (setting [25]) it was -3.34%; at 348 GPCRs [6] (setting [27]), 7.68%; at 348 GPCRs [8] (setting [29]), -0.512%; on 348 GPCRs [9] (setting [30]) it was -1.21%. Further, the activation at 10 µM at 348 GPCRs [10] (setting [31]) is -26.6%; at 348 GPCRs [11] (setting [32]) it was -0.815%; on 348 GPCRs [12] (setting [33]), -0.549%.
As to `CCC(CC)COC(=O)[C@H](C)N[P@](=O)(OC[C@H]1O[C@@](C#N)(c2ccc3c(N)ncnn23)[C@H](O)[C@@H]1O)Oc1ccccc1` [remdesivir], the activation at 100 µM at 348 GPCRs [1] (setting [22]) is 0.199%; on 348 GPCRs [5] (setting [26]) it was -1.56%; on 348 GPCRs [7] (setting [28]), -0.086%. For the same molecule, the activation at 10 µM was determined as 1.07% on 348 GPCRs [2] (setting [23]); 1.91% at 348 GPCRs [3] (setting [24]); 1.32% on 348 GPCRs [4] (setting [25]); 2.03% at 348 GPCRs [6] (setting [27]); 0.24% at 348 GPCRs [8] (setting [29]); 1.83% at 348 GPCRs [9] (setting [30]). In addition, the activation at 10 µM at 348 GPCRs [10] (setting [31]) was 1.18%; on 348 GPCRs [11] (setting [32]) it was 1.6%; on 348 GPCRs [12] (setting [33]), -0.846%.
For `N#C[C@@]1(c2ccc3c(N)ncnn23)O[C@H](CO)[C@@H](O)[C@H]1O` [GS441524], the results for the activation at 100 µM on 348 GPCRs [1] (setting [13]), at 348 GPCRs [5] (setting [16]) and on 348 GPCRs [7] (setting [18]) were -0.985%, -0.341% and -0.772%, respectively. Besides, the activation at 10 µM on 348 GPCRs [2] (setting [34]) was -0.381%; on 348 GPCRs [3] (setting [14]) it was -0.48%; on 348 GPCRs [4] (setting [15]), 0.00909%; on 348 GPCRs [6] (setting [17]), 1.72%; at 348 GPCRs [8] (setting [35]), -0.48%; on 348 GPCRs [9] (setting [19]) it was -0.304%. The activation at 10 µM was -8.65% on 348 GPCRs [10] (setting [36]), -3.06% on 348 GPCRs [11] (setting [20]) and -0.904% on 348 GPCRs [12] (setting [21]).
Take `CC(C)C(=O)OC[C@H]1O[C@@H](n2ccc(NO)nc2=O)[C@H](O)[C@@H]1O` [molnupiravir]: the activation at 100 µM was 0.884% on 348 GPCRs [1] (setting [13]), -6.1% at 348 GPCRs [5] (setting [16]) and -1.91% at 348 GPCRs [7] (setting [18]). In addition, the activation at 10 µM is 0.738% on 348 GPCRs [2] (setting [34]); -1.27% on 348 GPCRs [3] (setting [14]); -2.23% on 348 GPCRs [4] (setting [15]); 0.338% on 348 GPCRs [6] (setting [17]); 0.0613% on 348 GPCRs [8] (setting [35]); -0.705% at 348 GPCRs [9] (setting [19]). The activation at 10 µM is -17.8% on 348 GPCRs [10] (setting [36]), -1.26% on 348 GPCRs [11] (setting [20]) and -0.917% at 348 GPCRs [12] (setting [21]).
